Entries after “also recorded” stand apart in the source; their conditions may differ. Bridge positions count the residues as written; N and C are the ends. Ends that are not written are not given here.

These results are taken from US8614236B2 (University of Washington, priority 2006, dated 2013).

Test [1] deals with PASMCs. The experiment in a line: Changes in membrane potential (Em) in PASMCs, DiBAC4(3) fluorescence. The following applies: agent alone; for increase in DiBAC4(3) fluorescence: KCl 60 mM, ET-1 10^−8 M. It counts as cell-based, rat. As for the experimental part:
(§1) The method for obtaining single PASMCs has been described previously in Shimoda L. A., et al., Am J Physiol 274: 842-853 (1998), which is hereby incorporated by reference in its entirety. Intrapulmonary arteries (200-600 μm o.d.) were isolated from male Wistar rats (250-350 g) and cleaned of connective tissue. After the lumen was gently rubbed with a cotton swab to remove the endothelial cells, the arteries were allowed to recover for 30 minutes in cold (4° C.) HBSS containing (in mM): 130 NaCl, 5 KCl, 1.2 MgCl2, 1.5 CaCl2, 10 N-[2-hydroxyethyl]piperazine-N′-[2-ethanesulfonic acid] (HEPES) and 10 glucose, with pH adjusted to 7.2 with 5 M NaOH, followed by 20 minutes in reduced-Ca^2+ (20 μM CaCl2) HBSS at room temperature. The tissue was enzymatically digested in reduced-Ca^2+ HBSS containing collagenase (type I; 1750 U/ml), papain (9.5 U/ml), bovine serum albumin (2 mg/ml) and dithiothreitol (1 mM) at 37° C. for 20 minutes. Following digestion, single smooth muscle cells were dispersed by gentle trituration with a wide-bore transfer pipette in Ca^2+-free HBSS and the cell suspension was placed on 25 mm glass cover slips. PASMCs were transiently cultured in Ham's-F-12 media supplemented with 0.5% fetal bovine serum and 1% penicillin/streptomycin for 24-48 hrs. before study.
Changes in membrane potential were measured using the fluorescence dye, DiBAC4(3), which was excited at 490 nm and detected at 510 nm. Cells were loaded by continuous perfusion with Kreb's solution containing 500 nM DiBAC4(3) and were perfused for at least 15 minutes before beginning measurements to insure stable uptake of dye. Baseline DiBAC4(3) fluorescence was monitored for 5 minutes with control Kreb's, followed by 10 minutes with Kreb's in the presence or absence of AZ (100 μM). At the end of this period, cells were challenged with KCl (60 mM) or endothelin-1 (ET-1) (10^−8 M). Since DiBAC4(3) is a single wavelength dye, any change in the concentration of the dye in the perfusion medium (i.e., differing concentrations between perfusion reservoirs) could result in a change in fluorescence that is not due to a change in membrane potential. To minimize the possibility of this type of error, all experiments were performed using inflow from a single reservoir into which AZ, KCl or ET-1 were dissolved directly.
AZ has recently been proposed to alter the activation of Ca^2+-activated K^+ channels, causing hyperpolarization. See Pickkers P., et al., Br J Pharmacol 132: 443-450 (2001); Tricarico D., et al., Ann Neurol 48: 304-312 (2000); and Tricarico D., et al., Faseb J 18: 760-761 (2004), which are hereby incorporated by reference in their entirety. Since depolarization is believed to contribute to the hypoxia-induced increase in [Ca^2+]i, AZ-induced hyperpolarization could prevent activation of voltage-gated Ca^2+ channels and an increase in [Ca^2+]i in response to hypoxia. In order to test this possibility, the Em-sensitive fluorescent dye, DiBAC4(3) was used. […] Baseline fluorescence was relatively stable over time, decreasing by 4.11±0.4% over 10 minutes (n=90 cells).

Test [2] has as its system PASMCs. The experiment in a line: Hypoxia-induced increase in [Ca2+]i in PASMCs (4% O2). In kind it is cell-based, rat. As for the experimental part: as §1, with “Intrapulmonary” for “The method for obtaining single PASMCs has been described previously in Shimoda L. A., et al., Am J Physiol 274: 842-853 (1998), which is hereby incorporated by reference in its entirety. Intrapulmonary”, “The tissue was enzymatically digested in reduced-Ca^2+ HBSS containing collagenase (type I; 1750 U/ml), papain (9.5 U/ml), bovine serum albumin (2 mg/ml) and dithiothreitol (1 mM) at 37° C. for 20 minutes.” left out
(§2) Acute hypoxia increases intracellular [Ca^2+] in pulmonary arterial smooth muscle by enhancing capacitative Ca^2+ entry. […] Ratiometric measurement of fluorescence from the dye was performed on a workstation (Intracellular Imaging Inc, Cincinnati, Ohio) consisting of a Nikon TSE 100 Ellipse inverted microscope with epi-fluorescence attachments. The light beam from a xenon arc lamp was filtered at 340 and 380 nm, and focused onto the PASMCS under examination via a 20× fluorescence objective (Super Fluor 20, Nikon). Light emitted from the cell at 510 nm was returned through the objective and detected by a cooled CCD imaging camera. An electronic shutter (Sutter Instruments) was used to minimize photobleaching of dye. Protocols were executed and data collected on-line with InCyte software (Intracellular Imaging Inc). [Ca^2+]i was estimated from in vitro calibration solutions.

Test [3] deals with PASMCs. The experiment in a line: KCl-induced Ca2+ responses in PASMCs. In kind it is cell-based, rat. The conditions noted are these: 100 μM. The procedure: as §1, with “Intrapulmonary” for “The method for obtaining single PASMCs has been described previously in Shimoda L. A., et al., Am J Physiol 274: 842-853 (1998), which is hereby incorporated by reference in its entirety. Intrapulmonary”, “The tissue was enzymatically digested in reduced-Ca^2+ HBSS containing collagenase (type I; 1750 U/ml), papain (9.5 U/ml), bovine serum albumin (2 mg/ml) and dithiothreitol (1 mM) at 37° C. for 20 minutes.” left out
as §2

For test [4], the system named is PASMCs. The experiment in a line: Basal intracellular Ca2+ concentration in PASMCs (Fura-2). In kind it is cell-based, rat. As for the experimental part:
as §1, with “Intrapulmonary” for “The method for obtaining single PASMCs has been described previously in Shimoda L. A., et al., Am J Physiol 274: 842-853 (1998), which is hereby incorporated by reference in its entirety. Intrapulmonary”, “The tissue was enzymatically digested in reduced-Ca^2+ HBSS containing collagenase (type I; 1750 U/ml), papain (9.5 U/ml), bovine serum albumin (2 mg/ml) and dithiothreitol (1 mM) at 37° C. for 20 minutes.” left out
as §2

Another test has as its system carbonic anhydrase. The experiment in a line: Carbonic anhydrase inhibition. In kind it is biochemical. From the text:
Benzolamide (BZ) was obtained from Dr. Thomas H. Maren, University of Florida Department of Pharmacology.

Test [5] has as its system PASMCs. The experiment in a line: Intracellular pH (pHi) in PASMCs (BCECF-AM). It counts as cell-based, rat. The procedure: as §1
pHi within PASMCs was monitored using the cell permeant pH sensitive dye 2′,7′-bis(carboxyethyl)-5(6)-carboxyflourescein (BCECF-AM). Cells were incubated with BCECF-AM for 60 min at 37° C. under an atmosphere of 21% O2-5% CO2. Cells were then washed with Kreb's solution for 15 min at 37° C. to remove extracellular dye and allow complete de-esterification of cytosolic dye. Cells were excited with light at 490 and 440 nm and light emitted from the cells was detected at 530 nm. The ratio of 490 to 440 nm emission was calculated and converted into pH values by performing a calibration curve after each experiment. PASMCs were subjected to a high K^+ buffer containing 10 μM nigericin, which allowed the cell to adopt the pH of the high K^+ buffer. Two high K^+/nigericin buffers were used to set pH to 6.5 or 7.5, pHi was estimated from in situ calibration after each experiment. Cells were perfused with a solution containing (in mM): 105 KCl, 1 MgCl2, 1.5 CaCl2, 10 glucose, 20 HEPES-Tris and 0.01 nigericin to allow pHi to equilibrate to external pH as in Quinn D. A., et al., Am J Respir Cell Mol Biol 5: 586-591 (1991), which is hereby incorporated by reference in its entirety. A two point calibration was created from fluorescence measured as pHi was adjusted with KOH from 6.5 to 7.5. Intracellular H^+ ion concentration ([H^+]i) was determined from pHi using the formula: pHi=−log ([H^+]i).

`[Cl-].[K+]` [KCl]: in the test with PASMCs [1], the “increase in DiBAC4(3) fluorescence” value amounted to 61.58±12.8%.
Regarding `CNS(=O)(=O)c1nnc(NC(C)=O)s1` [N-Meth-AZ], the “increase in [Ca^2+]i induced by hypoxia” value in the test with PASMCs [2] (100 μM, control 141.1±32.2 nM) was found to be 33.2 ± 17.4 nM. In the test with PASMCs [2] (10-100 μM), the “effect on hypoxia-induced increase in [Ca^2+]i” value is listed as “markedly reduced; also recorded: prevented”. In addition, the “effect on KCl-induced increase in [Ca^2+]i” value in the test with PASMCs [3] is given as “similar”. For the same compound, the “basal [Ca^2+]i, Treatment” value with PASMCs [4] (100 μM, after 10 min of perfusion) turned out to be 200.9 ± 11.3 nM. Further, the “basal [Ca^2+]i, Baseline” value with PASMCs [4] (before perfusion with the compound) amounted to 193.4 ± 11.0 nM. Moreover, the “CA inhibiting action” value in the test with carbonic anhydrase is “no CA inhibiting action”. In addition, in the test on PASMCs [5] (100 μM), the “basal pHi, Treatment” value worked out at 7.12±0.01 and the “effect on basal pHi” value was “no significant effect; also recorded: minimal effect”. In the test with PASMCs [5] (before the compound), the “basal pHi, Baseline” value came out at 7.13±0.02.
Turning to `CC(N/C(=N\C#N)Nc1ccncc1)C(C)(C)C` (stereo not drawn) [pinacidil], the “decrease in DiBAC4(3) fluorescence” value in the test on PASMCs [1] (100 μM) worked out at 19.76±3.3%.
“endothelin-1 (CSCSSLMDKECVYFCHLDIIW; disulfide 1-15, 3-11; ends not checked; UniProt P05305 53-73, looked up) [ET-1]”: the “increase in DiBAC4(3) fluorescence” value with PASMCs [1] was found to be 75.6±13.4%.
